Patent publication US20040185510A1, “Use of labelled CCK-B receptor ligands for the detection and localization of malignant human tumours” (priority 1996, published 2004)
Non-standard residues stand in square brackets, D forms with d. No end group written: not given here. Nle = CCCC[C@H](N)C(=O)O

Key:
[1] = molecular target: T1, CCK-B receptors in medullary thyroid carcinoma (MTC) tissue sections (Homo sapiens, UniProt P32239); assay: Receptor autoradiography: displacement of [125I]-desulfated-CCK-10 (compound 13 or 14) binding to MTC tissue sections; details: for affinity of the mono 125I-iodinated radioligand: the two mono-iodinated compounds compared with each other
T1 construct: Receptor autoradiography is performed on 10- and 20-μm thick cryostat sections of the various tumour samples; from tissue; host or cells: human medullary thyroid carcinoma (MTC) tissue sections
T1 sequence (P32239 1-447): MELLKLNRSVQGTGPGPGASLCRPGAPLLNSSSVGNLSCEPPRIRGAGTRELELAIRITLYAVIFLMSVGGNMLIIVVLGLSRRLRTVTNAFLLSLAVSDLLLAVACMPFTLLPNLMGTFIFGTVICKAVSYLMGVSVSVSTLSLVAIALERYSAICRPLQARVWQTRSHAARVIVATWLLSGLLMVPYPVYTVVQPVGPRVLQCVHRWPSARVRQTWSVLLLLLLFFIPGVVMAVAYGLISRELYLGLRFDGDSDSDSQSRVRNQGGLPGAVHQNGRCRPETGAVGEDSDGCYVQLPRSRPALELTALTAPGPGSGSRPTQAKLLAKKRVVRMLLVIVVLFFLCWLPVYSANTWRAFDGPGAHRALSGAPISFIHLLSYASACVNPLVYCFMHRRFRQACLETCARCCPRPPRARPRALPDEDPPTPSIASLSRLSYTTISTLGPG
Method: The tissues are cut on a cryostat, mounted on microscopes slides, and then stored at −20° C. for at least 3 days to improve adhesion of the tissue to the slide. The slide-mounted tissue sections are allowed to reach room temperature and are preincubated in 50 mmol/l Tris-HCl, 130 mmol/l NaCl, 4.7 mmol/l KCl, 5 mmol/l MgCl2, 1 mmol/l ethylene glycol-bi(β-aminoethylether)-N,N,N′,N′-tetraacetic acid, and 0.5% bovine serum albumin, pH 7.4 (preincubation solution), for 30 min. at 25° C. The slides are then incubated in a solution containing the same medium as the preincubation solution except the bovine serum albumin is omitted, and the following compounds are added: 20000 dpm/100 μl of ^125I-CCK, 0.025% bacitracin, 1 mmol/l dithiothreitol, 2 μg/ml chymostatin, and 4 μg/ml leupeptin, pH=6.5. The slides are incubated at room temperature with the radioligand for 150 min., as described by Mantyh et al. (Gasteroenterology 1994, 107, 1019-30). To estimate non-specific binding, paired serial sections are incubated as described above, except that CCK-8 (sulfated) is added to the incubation medium. After the incubation, the slides are rinsed with four washes of 30 sec each in ice-cold preincubation solution, pH 7.4, dipped in ice-cold water, and then quickly dried in a refrigerator under a stream of cold air. The sections are subsequently exposed to a 3H-Ultrofilm for 1 week, to detect the precise location of the radioactivity.
Each point represents the optical density of binding measured in the tumour area. Non-specific binding is subtracted from all values.

[2] = molecular target: T1, CCK-B receptors in medullary thyroid carcinoma (MTC) tissue sections; assay: Receptor autoradiography: displacement of [125I]-CCK-10 analog (compound 15) binding to MTC tissue sections; details: increasing concentrations of unlabelled peptide, optical density in tumour area
Method: Receptor autoradiography is performed on 10- and 20-μm thick cryostat sections of the various tumour samples, as described by Reubi et al. (Cancer Res. 1990, 50, 5969-5977).
The tissues are cut on a cryostat, mounted on microscopes slides, and then stored at −20° C. for at least 3 days to improve adhesion of the tissue to the slide. The slide-mounted tissue sections are allowed to reach room temperature and are preincubated in 50 mmol/l Tris-HCl, 130 mmol/l NaCl, 4.7 mmol/l KCl, 5 mmol/l MgCl2, 1 mmol/l ethylene glycol-bi(β-aminoethylether)-N,N,N′,N′-tetraacetic acid, and 0.5% bovine serum albumin, pH 7.4 (preincubation solution), for 30 min. at 25° C. […] The sections are subsequently exposed to a 3H-Ultrofilm for 1 week, to detect the precise location of the radioactivity. […]
Tissue sections are incubated with 20,000 cpm/100 μl [^125I]-CCK-10 and increasing concentrations of unlabelled CCK-8 (unsulfated)(▴), CCK-8 (sulfated) (•) or somastotatin (∘). Each point represents the optical density of binding measured in the tumour area. […]
The displacement curves of DTPA substituted CCK-analogs, prepared as described in Example 2, are measured in order to determine the effect of the DTPA group and of substitution of some amino acids by other amino acids. […]
Each point represents the optical density of binding measured in the tumour area. […]

Substance	affinity of the mono 125I-iodinated radioligand [1]	displacement of [125I]-CCK-10 analog (compound 15) binding [2]	also measured
[dY]GDY[Nle]GW[Nle]DF-NH2 [compound 12]			displacement of [125I]-desulfated-CCK-10 (compound 13 or 14) binding ([1]; increasing concentrations of unlabelled peptide): complete displacement
[^125I-D-Tyr]-Gly-Asp-Tyr-Nle-Gly-Trp-Nle-Asp-Phe-NH2 [compound 13]	same affinity		
D-Tyr-Gly-Asp-[^125I-Tyr]-Nle-Gly-Trp-Nle-Asp-Phe-NH2 [compound 14]	same affinity		

The next lines start with results.

affinity of the mono 125I-iodinated radioligand [1]	displacement of [125I]-CCK-10 analog (compound 15) binding [2]	Substance	also measured
	complete displacement	^115In-DTPA-Asp-Tyr-Nle-Gly-Trp-Nle-Asp-Phe-NH2 [compound 25]	
	complete displacement	^115In-DTPA-DAsp-Tyr-Nle-Gly-Trp-Nle-Asp-Phe-NH2 [compound 26]	
